Paper PMC9762201 (Current Research in Pharmacology and Drug Discovery, 2022)
“Also recorded” adds a separate entry of the source.

Key:
α1A-AR [1] = assay: cAMP assay and PAM assay in Rat-1 fibroblasts expressing α1A-AR; type: cell-based; conditions: for PAM activity (NE-mediated cAMP potentiation, PAM assay): NE 10^−4 M held constant, compound dose-response; for intrinsic (basal) agonist activity, cAMP: compound alone, dose-response
α1A-AR [2] = target: T1, α1A-AR (Homo sapiens, UniProt P35348); assay: Total inositol phosphate assay in Rat-1 fibroblasts expressing α1A-AR; type: cell-based; conditions: for intrinsic (basal) agonist activity, inositol phosphate: compound alone, dose-response
T1 sequence (P35348 1-466): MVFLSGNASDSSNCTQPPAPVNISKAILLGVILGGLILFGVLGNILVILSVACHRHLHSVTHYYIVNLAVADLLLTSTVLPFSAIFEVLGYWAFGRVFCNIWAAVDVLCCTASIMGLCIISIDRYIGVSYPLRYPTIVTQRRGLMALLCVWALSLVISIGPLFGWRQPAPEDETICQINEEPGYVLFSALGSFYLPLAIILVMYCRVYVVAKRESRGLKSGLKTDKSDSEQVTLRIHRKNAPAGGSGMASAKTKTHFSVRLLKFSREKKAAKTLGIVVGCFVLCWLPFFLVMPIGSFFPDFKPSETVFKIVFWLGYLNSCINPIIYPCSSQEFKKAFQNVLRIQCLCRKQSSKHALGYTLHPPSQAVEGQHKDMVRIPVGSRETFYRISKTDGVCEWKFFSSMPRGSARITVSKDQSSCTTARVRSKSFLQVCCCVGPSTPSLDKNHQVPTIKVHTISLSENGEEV

α1B-AR = type: binding; conditions: 0.5 mM GTP
α1D-AR = target: T2, α1D-AR (Homo sapiens, UniProt P25100); type: binding; conditions: 0.5 mM GTP
T2 sequence (P25100 1-572): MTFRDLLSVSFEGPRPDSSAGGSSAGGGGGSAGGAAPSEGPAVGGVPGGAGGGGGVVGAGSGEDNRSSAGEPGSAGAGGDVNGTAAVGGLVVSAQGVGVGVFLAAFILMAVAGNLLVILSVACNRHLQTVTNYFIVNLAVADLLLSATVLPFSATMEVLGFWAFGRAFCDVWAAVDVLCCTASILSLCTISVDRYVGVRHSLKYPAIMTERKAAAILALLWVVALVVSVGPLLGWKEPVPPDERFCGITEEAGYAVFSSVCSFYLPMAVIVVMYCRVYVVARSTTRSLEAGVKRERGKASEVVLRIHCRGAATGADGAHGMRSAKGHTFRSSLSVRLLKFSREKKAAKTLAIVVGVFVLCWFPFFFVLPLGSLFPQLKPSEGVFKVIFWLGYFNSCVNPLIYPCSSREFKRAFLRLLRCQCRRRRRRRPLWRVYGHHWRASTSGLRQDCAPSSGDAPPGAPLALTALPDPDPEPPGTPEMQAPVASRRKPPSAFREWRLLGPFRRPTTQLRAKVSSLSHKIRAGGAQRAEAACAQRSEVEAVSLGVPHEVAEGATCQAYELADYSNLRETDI

α1A-AR [3] = target: T1, α1A-AR; conditions: ref Hwa et al., 1995; cited from earlier work
α1A-AR [4] = target: T1, α1A-AR; type: binding; conditions: for extent of inhibition of 125I-HEAT binding at α1A-AR: 0.5 mM GTP
α2A-AR = target: T3, α2A-AR (Homo sapiens, UniProt P08913); type: binding; conditions: Cos-1 membranes
T3 sequence (P08913 1-465): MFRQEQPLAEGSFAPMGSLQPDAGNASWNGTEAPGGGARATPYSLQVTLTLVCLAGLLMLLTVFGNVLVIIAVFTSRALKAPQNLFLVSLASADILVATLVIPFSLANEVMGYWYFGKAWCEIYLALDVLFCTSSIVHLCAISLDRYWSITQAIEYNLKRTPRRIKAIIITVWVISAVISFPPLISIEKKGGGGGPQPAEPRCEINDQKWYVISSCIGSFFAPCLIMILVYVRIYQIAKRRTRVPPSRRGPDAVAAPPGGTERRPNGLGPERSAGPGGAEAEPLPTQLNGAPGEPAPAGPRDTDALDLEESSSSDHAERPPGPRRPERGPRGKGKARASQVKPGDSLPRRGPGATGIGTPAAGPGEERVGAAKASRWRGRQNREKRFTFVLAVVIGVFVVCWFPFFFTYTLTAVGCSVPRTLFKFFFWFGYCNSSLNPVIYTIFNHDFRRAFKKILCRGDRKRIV

Row | intrinsic (basal) agonist activity, inositol phosphate (α1A-AR [2]) | Compound | PAM activity (NE-mediated cAMP potentiation, PAM assay) (α1A-AR [1]) | intrinsic (basal) agonist activity, cAMP (α1A-AR [1]) | also measured
1 | do not show any basal activity | CN(c1cccc(OCC2=NCCN2)c1CC(C)(C)C)S(C)(=O)=O.Cl [Cmpd-14, N-(3-((4,5-Dihydro-1H-imidazol-2-yl)methoxy)-2-neopentylphenyl)-N-methylmethanesulfonamide hydrochloride] | retained PAM activity; also recorded: display PAM effect | do not show any basal activity | 
2 | do not show any basal activity | CN(c1cccc(OCC2=NCCN2)c1CC(F)(F)F)S(C)(=O)=O.Cl [Cmpd-13, N-(3-((4,5-Dihydro-1H-imidazol-2-yl)methoxy)-2-(2,2,2-trifluoroethyl)phenyl)-N-methylmethanesulfonamide hydrochloride] | lost PAM activity; also recorded: display competitive inhibition; also recorded: abolishes PAM activity | do not show any basal activity | 
3 | partial agonists | Cc1c(OCC2=NCCN2)ccc(Cl)c1NS(C)(=O)=O [RO115-1240, Dabuzalgron, reference compound] | neither RO115-1240 nor cirazoline displayed any PAM characteristics | partial agonists | effect on Epi-mediated inositol phosphate signal at α1A-AR (α1A-AR [2]): effects consistent with a partial or full agonist; effect on NE-mediated inositol phosphate signal at α1A-AR (α1A-AR [2]): effects consistent with a partial or full agonist

Continued, compound first:

Row | Compound | intrinsic (basal) agonist activity, inositol phosphate (α1A-AR [2]) | PAM activity (NE-mediated cAMP potentiation, PAM assay) (α1A-AR [1]) | intrinsic (basal) agonist activity, cAMP (α1A-AR [1]) | also measured
4 | CC(C)CCc1c(OCC2=NCCN2)cccc1N(C)S(C)(=O)=O.Cl [Cmpd-10, N-(3-((4,5-Dihydro-1H-imidazol-2-yl)methoxy)-2-isopentylphenyl)-N-methylmethanesulfonamide hydrochloride] | do not show any basal activity | retained PAM activity; also recorded: display PAM effect | do not show any basal activity | 
5 | CC(C)Cc1c(OCC2=NCCN2)cccc1N(C)S(=O)(=O)C(C)C.Cl [Cmpd-12, N-(3-((4,5-Dihydro-1H-imidazol-2-yl)methoxy)-2-isobutylphenyl)-N-methylpropane-2-sulfonamide hydrochloride] | do not show any basal activity | lost PAM activity; also recorded: display competitive inhibition; also recorded: abolished PAM activity | do not show any basal activity | 
6 | c1ccc(C2CC2)c(OCC2=NCCN2)c1 [cirazoline, reference compound] | partial agonists | competitive inhibition; also recorded: neither RO115-1240 nor cirazoline displayed any PAM characteristics | partial agonists; also recorded: greater intrinsic activity than RO115-1224 | binding at α1B-AR (125I-HEAT competition) (α1B-AR): completely inhibited; extent of inhibition of 125I-HEAT binding at α1D-AR (α1D-AR): completely inhibited; selectivity for α1A-AR against the α1B- and α1D-AR subtypes (α1A-AR [3]): 10-50 fold; extent of inhibition of 125I-HEAT binding at α1A-AR (α1A-AR [4]): fully inhibit; also recorded: completely inhibited; effect on NE binding at α1A-AR (α1A-AR [4]; compound 10^−5 M, absence of GTP, 125I-HEAT): fully-inhibited the binding of NE; also recorded: completely competes off NE binding; effect on Epi-mediated cAMP response at α1A-AR (α1A-AR [1]; Epi dose-response, propranolol and rauwolscine present): rightward curve-shifting effects; also recorded: rightward shifting competitive effects; effect on NE-mediated cAMP response at α1A-AR (α1A-AR [1]; NE dose-response, propranolol and rauwolscine present): rightward curve-shifting effects; also recorded: rightward shifting competitive effects
7 | CC(C)Cc1c(OCC2=NCCN2)ccc(Cl)c1N(C)S(C)(=O)=O.Cl [Cmpd-7, N-(6-Chloro-3-((4,5-dihydro-1H-imidazol-2-yl)methoxy)-2-isobutylphenyl)-N-methylmethanesulfonamide hydrochloride] |  | abolished PAM activity |  | 
8 | NC[C@H](O)c1ccc(O)c(O)c1 [NE, norepinephrine] |  |  |  | fraction of receptor in the high affinity state, NE alone (α1A-AR [4]; absence of GTP): 15%
9 | Cc1ccc(N(CC2=NCCN2)c2cccc(O)c2)cc1 [phentolamine] |  |  |  | extent of inhibition of 125I-HEAT binding at α1A-AR (α1A-AR [4]): fully inhibit; also recorded: completely inhibited
10 | COC(=O)[C@H]1[C@H]2C[C@H]3c4[nH]c5ccccc5c4CCN3C[C@H]2CC[C@@H]1O [rauwolscine, reference compound] |  |  |  | extent of inhibition of 3H-RX821002 binding at α2A-AR (α2A-AR): fully inhibited
